Assay results reported in PubChem BioAssay (NCI).
Several values for one entry are separate records, joined by “and”; a condition that tells them apart may be missing. Equal entries are not always repeated.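 Exposure lasted 48 hours, with cells grown in 96-well plates and compounds tested at five concentrations. GI50 marks 50% less growth. TGI marks complete inhibition of growth.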

Experiments:
Experiment in all cases: NCI-60 cell line screen, 48 h
[1] = system: OVCAR-4 ovarian
[2] = system: IGROV1 ovarian
[3] = system: SF-268 CNS
[4] = system: DMS 273 small cell lung
[5] = system: RXF 393 renal
[6] = system: HL-60(TB) leukemia
[7] = system: SNB-78 CNS
[8] = system: DMS 114 small cell lung
[9] = system: UO-31 renal
[10] = system: MALME-3M melanoma
[11] = system: HCT-15 colon
[12] = system: NCI-H522 lung
[13] = system: SK-MEL-28 melanoma
[14] = system: HT29 colon
[15] = system: HCT-116 colon
[16] = system: SN12C renal
[17] = system: A498 renal
[18] = system: TK-10 renal
[19] = system: HOP-62 NSCLC
[20] = system: XF 498 CNS
[21] = system: SNB-19 CNS
[22] = system: OVCAR-8 ovarian
[23] = system: SK-MEL-5 melanoma
[24] = system: COLO 205 colon
[25] = system: 786-0 renal
[26] = system: M19-MEL melanoma
[27] = system: SW-620 colon
[28] = system: OVCAR-3 ovarian
[29] = system: EKVX NSCLC
[30] = system: SK-MEL-2 melanoma
[31] = system: SF-539 CNS
[32] = system: ACHN renal
[33] = system: A549 NSCLC
[34] = system: CCRF-CEM leukemia
[35] = system: DLD-1 colon
[36] = system: UACC-257 melanoma
[37] = system: OVCAR-5 ovarian
[38] = system: HOP-92 NSCLC
[39] = system: LOX IMVI melanoma
[40] = system: UACC-62 melanoma
[41] = system: NCI-H226 lung
[42] = system: M14 melanoma
[43] = system: HCC-2998 colon
[44] = system: U251 CNS
[45] = system: NCI-H23 lung
[46] = system: KM12 colon
[47] = system: KM20L2 colon
[48] = system: SNB-75 CNS
[49] = system: HOP-18 NSCLC
[50] = system: NCI-H460 lung
[51] = system: LXFL 529 NSCLC
[52] = system: SF-295 CNS
[53] = system: SK-OV-3 ovarian
[54] = system: SR leukemia
[55] = system: RXF-631 renal
[56] = system: K-562 leukemia
[57] = system: MOLT-4 leukemia
[58] = system: CAKI-1 renal
[59] = system: RPMI-8226 leukemia

CCCCCCCCCCCCCB(O)O
GI50 [1]: > 100 µM and 49.3 µM
TGI [1]: > 100 µM
TGI [2]: > 100 µM
TGI [3]: > 100 µM
TGI [4]: > 100 µM
GI50 [5]: > 100 µM and 29.5 µM
TGI [5]: > 100 µM and 73.7 µM
TGI [6]: > 100 µM and 42.5 µM
TGI [7]: > 100 µM
TGI [8]: > 100 µM
GI50 [9]: > 100 µM and 27.5 µM
TGI [9]: > 100 µM
TGI [10]: > 100 µM
GI50 [11]: > 100 µM and 49.3 µM
TGI [11]: > 100 µM
TGI [12]: > 100 µM
TGI [13]: > 100 µM
GI50 [14]: > 100 µM and 29.9 µM
TGI [14]: > 100 µM
GI50 [15]: > 100 µM and 47.8 µM
TGI [15]: > 100 µM
TGI [16]: > 100 µM
TGI [17]: > 100 µM
TGI [18]: > 100 µM
TGI [19]: > 100 µM
TGI [20]: > 100 µM
TGI [21]: > 100 µM
TGI [22]: > 100 µM
GI50 [23]: > 100 µM and 45.4 µM
TGI [23]: > 100 µM
TGI [24]: > 100 µM
TGI [25]: > 100 µM
TGI [26]: > 100 µM
TGI [27]: > 100 µM
TGI [28]: > 100 µM
GI50 [29]: > 100 µM and 45.5 µM
TGI [29]: > 100 µM
TGI [30]: > 100 µM
TGI [31]: > 100 µM
GI50 [32]: > 100 µM and 45.4 µM
TGI [32]: > 100 µM
GI50 [33]: > 100 µM and 48.5 µM
TGI [33]: > 100 µM
TGI [34]: > 100 µM
TGI [35]: > 100 µM
TGI [36]: > 100 µM
TGI [37]: > 100 µM
GI50 [38]: > 100 µM and 25.1 µM
TGI [38]: > 100 µM and 82.9 µM
TGI [39]: > 100 µM
TGI [40]: > 100 µM
TGI [41]: > 100 µM
TGI [42]: > 100 µM
GI50 [43]: > 100 µM and 32 µM
TGI [43]: > 100 µM and 84.7 µM
TGI [44]: > 100 µM
TGI [45]: > 100 µM
GI50 [46]: > 100 µM and 35.8 µM
TGI [46]: > 100 µM
TGI [47]: > 100 µM
TGI [48]: > 100 µM and 37.6 µM
GI50 [49]: > 100 µM and 25.9 µM
TGI [49]: > 100 µM
TGI [50]: > 100 µM
TGI [51]: > 100 µM
TGI [52]: > 100 µM
TGI [53]: > 100 µM

COc1c2c(cc3c1C(=O)Cc1ccc4c(c1CN(C)CC3)OCO4)OCO2
TGI [1]: > 100 µM
TGI [2]: > 100 µM
TGI [3]: > 100 µM
TGI [54]: > 100 µM
TGI [5]: > 100 µM
TGI [6]: > 100 µM
TGI [7]: > 100 µM
TGI [8]: > 100 µM
TGI [9]: > 100 µM
TGI [10]: > 100 µM
TGI [11]: > 100 µM
TGI [12]: > 100 µM
TGI [13]: > 100 µM
TGI [14]: > 100 µM
TGI [15]: > 100 µM
TGI [16]: > 100 µM
TGI [18]: > 100 µM
TGI [19]: > 100 µM
TGI [21]: > 100 µM
TGI [22]: > 100 µM
TGI [55]: > 100 µM
TGI [56]: > 100 µM
TGI [23]: > 100 µM
TGI [24]: > 100 µM
TGI [25]: > 100 µM
TGI [26]: > 100 µM
TGI [27]: > 100 µM
TGI [28]: > 100 µM
TGI [29]: > 100 µM
TGI [30]: > 100 µM
TGI [31]: > 100 µM
TGI [32]: > 100 µM
TGI [33]: > 100 µM
TGI [34]: > 100 µM
TGI [35]: > 100 µM
TGI [57]: > 100 µM
TGI [36]: > 100 µM
TGI [37]: > 100 µM
TGI [38]: > 100 µM
TGI [58]: > 100 µM
TGI [39]: > 100 µM
TGI [40]: > 100 µM
TGI [41]: > 100 µM
TGI [42]: > 100 µM
TGI [43]: > 100 µM
TGI [44]: > 100 µM
TGI [45]: > 100 µM
TGI [46]: > 100 µM
TGI [47]: > 100 µM
TGI [48]: > 100 µM
TGI [49]: > 100 µM
TGI [50]: > 100 µM
TGI [59]: > 100 µM
TGI [52]: > 100 µM
TGI [53]: > 100 µM
